Assay results reported in patent US20130150430A1, “Methods for Impairing the P53/HDM2 Auto-Regulatory Loop in Multiple Myeloma Development Using mIR-192, mIR-194 and mIR-215” (THE OHIO STATE UNIVERSITY, priority 2011, published 2013).

Tests used:
Type in all cases: cell-based, human
[1] = system: NCI-H929 and RPMI-8226 IGF-1 treated cells; assay: Adhesion assay on fibronectin in response to IGF-1; conditions: ectopic expression, vs Scr control
Protocol: FIG. 21A, FIG. 21B: MM1s and RPMI-8226 cells (pre-miRNA-192, -194, -215, Scr sequence-transfected) at 48 hr after transfection were harvested, treated with calcein and incubated with IGF-1 (50 ng/ml) and their ability to adhere to fibronectin plates was assessed by fluorescence assay. MM1s (FIG. 21A) and RPMI-8226 (FIG. 21B) with ectopic re-expression of miR-192, 215 and also miR-194 lost their ability to respond to IGF-1 treatment compare to Scr sequence.
Before adhesion, MM cell lines were starved overnight in RPMI 1640/0.5% BSA, without loss of viability. Cells (5×10^6/ml) were labeled with calcein-a.m. (Molecular Probes, Eugene, Oreg.) for 30 min at 37° C., washed, and resuspended in adhesion medium (RPMI 1640/10% FBS). Cells were stimulated with or without IGF-1 at 0-200 ng/ml for 20 min and added in triplicate to Fibronectin-coated 48 well plates (BD Biosciences #354506, Bedford, Mass.) at 37° C. for 30 min, and unbound cells were removed by four washes with RPMI1640. The absorbance of each well was measured using 492/520 nm filter set with a fluorescence plate reader (Wallac VICTOR2; Perkin-Elmer, Boston, Mass.).

[2] = system: RPMI-8226 cells expressing mutant TP53; assay: MTS cell viability assay after miRNA transfection; conditions: transfected RPMI-8226 cells
Excerpt: (§1) FIG. 3A, FIG. 3B, FIG. 3C, FIG. 3D: MTS assay performed in MM1s (FIG. 3A), NCI-929 (FIG. 3B), KMS28BM (FIG. 3C) and RPMI-8226 (FIG. 3D) cell lines. Cells were transfected with miR-192, miR-215 and scrambled sequence (Scr) and were harvested at 24, 48, and 72 hrs after transfection. P values are indicated.
(§2) CD-138+ PCs obtained from new diagnosed MM subjects and isolated as previously described were transfected by using nucleoporation (LONZA) Cell Line Nucleofector Kit V (Cat#VCA-1003). MM1s, NCI-H929 cell lines were transfected by using nucleoporation (LONZA) Cell Line Nucleofector Kit V (Cat#VCA-1003). Instead for U266, KMS-28BM and RPMI-8226 Cell Line Nucleofector Kit C (Cat#VCA-1004) was used. Specifically for primary cells 1×10^6 CD-138+ PCs were resuspended in […] of V solution and 100 nM miRNA precursors (Ambion) was used for the transfection reaction. For MM cell lines 5×10^6 cells were re-suspended in 100 μl of nucleofector solution V/C and 100 nM of miRNAs precursor or 100 nM LNA miRNA antisense oligonucleotides (Ambion) was used for each transfection point. Protein lysates and total RNA were collected at the time indicated. miRNA processing and expression were verified by northern blot and stem-loop qRT-PCR.
(§3) Cells were plated in 96-well plates in triplicate and incubated at 37° C. in a 5% CO2 incubator. Cell viability was examined with 3-(4,5-dimethylthiazol-2-yl)-2,5-dipheniltetrazolium bromide (MTT)-Cell Titer 96AQueous One Solution Cell Proliferation Assay (Promega), according to the manufacturer's protocol. Metabolically active cells were detected by adding 20 μl of MTT to each well. After 1 hr incubation, the plates were analyzed in a Multi label Counter (Bio-Rad Laboratories). Apoptosis was assessed using Annexin V-FITC apoptosis detection kits followed by flow cytometric analysis. For Annexin V staining, MM cells (pre-miRNAs pool or Scrambled transfected) were treated with MI-219 at different concentrations (0, 2.5, 5.0, 10 μM) for 24 hr and then treated as for DNA content analysis, except that fixation was omitted and the Cells (5×10^5 per sample) were resuspended in PBS containing 25 μg/ml Annexin-V-FLUOS (Roche Applied Science) and 50 μg/ml PI prior to FACS analysis. The percentage of apoptosis indicated was corrected for background levels found in the corresponding untreated controls. The percentage of apoptotic cells was expressed as the mean±SD of three experiments.

[3] = system: MM cells carrying WT TP53 (MM1s, NCI-H929, KMS28BM); assay: MTS cell viability assay after miRNA transfection; conditions: transfected cells vs scrambled sequences, 24, 48, 72 hrs after transfection
Excerpt: as §1, §2, §3

[4] = system: WT p53 MM cells; assay: Colony suppression assay after lentiviral miRNA transduction; conditions: lentivirus-transduced WT p53 cells; miR-34a internal control; scored at 14 days
Protocol: FIG. 3E, FIG. 3F: Soft agar colony suppression assay in WT TP53 and mutant TP53 MM cell lines after miRNAs transduction by lentivectors.
A total of 30×10^3 cells were infected with Lenti-mir-192: PMIRH 192-PA-1 Lenti-mir-194-1:PMIRH 1941PA-1; Lenti-mir-215:PMIRH 215 PA-1; Control Lentivector(pCDH-CMV-EFI-copGFP cDNA cloning and Expression vector): CD511 B-1 (System Biosciences) as per the manufacturer's protocol. MM cells were plated in quadruplicate in 1 mL of methylcellulose medium for Mouse cells (Cat#03234, Stem cell Technologies) in 6-well culture plates. Colonies consisting of more than 40 (125μ) cells were scored at 14 days.

## miR-192: microRNA, p53-activated, down-regulated in MM; transfected as miRNA precursor (Ambion) or lentivector; SEQ ID NO:56 (CUGACCUAUGAAUUGACAGCC; listed as RNA, chemistry not given here; listed as Homo sapiens)
[1]
  cell adhesion: significant decrease
[2]
  growth arrest (MTS assay): did not detect this effect
[3]
  growth arrest (MTS assay): significant growth arrest
[4]
  colony formation: suppressed colony formation to an extent comparable to miR-34a

## miR-215: microRNA, p53-activated, down-regulated in MM; transfected as miRNA precursor (Ambion) or lentivector; SEQ ID NO:58 (AUGACCUAUGAAUUGACAGAC; listed as RNA, chemistry not given here; listed as Homo sapiens)
[1]
  cell adhesion: significant decrease
[2]
  growth arrest (MTS assay): did not detect this effect
[3]
  growth arrest (MTS assay): significant growth arrest
[4]
  colony formation: suppressed colony formation to an extent comparable to miR-34a
